Values quoted from earlier work, collected in patent US20040241258A1, “Insect repellent for humans and animals” (priority 2003, published 2004).

Settings: in vivo

CCN(CC)C(=O)c1cccc(C)c1 [DEET, N, N-diethyl-meta-toulamide]
time remaining in the blood stream after use: 30 days
